Reference: US20240158446A1, “CYCLIC COMPOUND HAVING SELECTIVE INHIBITORY ACTION ON KRAS OVER HRAS AND NRAS” (CHUGAI SEIYAKU KABUSHIKI KAISHA, priority 2021, published 2024)

Tests used:
[1] = target: GDP-bound NRAS wild-type protein (Homo sapiens, UniProt P01111); experiment: Binding to NRAS by surface plasmon resonance (SPR), Single Cycle Kinetics; conditions: SPR, GDP-bound NRAS wild-type protein vs GDP-bound KRAS wild-type protein
[2] = target: GDP-bound HRAS wild-type protein (Homo sapiens, UniProt P01112); experiment: Binding to HRAS by surface plasmon resonance (SPR), Single Cycle Kinetics; conditions: SPR, GDP-bound HRAS wild-type protein vs GDP-bound KRAS wild-type protein
GDP-bound HRAS wild-type protein, sequence (P01112 whole entry): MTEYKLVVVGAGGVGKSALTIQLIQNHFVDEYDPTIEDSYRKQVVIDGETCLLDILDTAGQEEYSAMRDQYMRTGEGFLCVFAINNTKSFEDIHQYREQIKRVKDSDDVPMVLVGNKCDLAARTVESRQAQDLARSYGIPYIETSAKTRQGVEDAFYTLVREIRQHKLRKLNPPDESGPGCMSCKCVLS

GDP-bound NRAS wild-type protein, sequence (P01111 whole entry): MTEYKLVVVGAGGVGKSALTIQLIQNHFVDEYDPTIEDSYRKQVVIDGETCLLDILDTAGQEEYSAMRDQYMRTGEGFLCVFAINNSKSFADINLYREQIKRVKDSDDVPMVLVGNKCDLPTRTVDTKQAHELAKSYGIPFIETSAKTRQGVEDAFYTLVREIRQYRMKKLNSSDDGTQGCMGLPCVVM

| Structure (SMILES) | NRAS/KRAS (ratio of KD value with respect to NRAS to KD value with respect to KRAS) [1] | HRAS/KRAS (ratio of KD value with respect to HRAS to KD value with respect to KRAS) [2] |
| --- | --- | --- |
| CCO[C@@H]1C[C@H]2C(=O)NC3(CCC3)C(=O)N(C)[C@@H](C3CCCC3)C(=O)N(CCc3ccccc3)[C@H](C(=O)N3CCOCC3)CC(=O)N(C)[C@@H](CC(C)C)C(=O)N[C@@H]([C@@H](C)CC)C(=O)N(C)CC(=O)N(C)[C@H]3CCCCCN(C3=O)[C@@H](Cc3ccc(C(F)(F)F)cc3)C(=O)N(C)CC(=O)N[C@@H](CCc3cc(F)c(C(F)(F)F)c(F)c3)C(=O)N2C1 [PP0642] | B (a compound having 3 or more and less than 10 is denoted as B) | B (a compound having 3 or more and less than 10 is denoted as B) |
| CCCN1C(=O)[C@H](C2CCCC2)N(C)C(=O)C2(CCC2)NC(=O)[C@@H]2C[C@@H](OCC)CN2C(=O)[C@H](CCc2cc(F)c(C(F)(F)F)c(F)c2)NC(=O)CN(C)C(=O)[C@H](Cc2ccc(C(F)(F)F)cc2)N2CCCC[C@@H](C2=O)N(C)C(=O)CN(C)C(=O)[C@H]([C@@H](C)CC)NC(=O)[C@H](CC)N(C)C(=O)C[C@H]1C(=O)N(C)C [PP0644] | C (A compound having a KD ratio of 0.1 or more and less than 3 is denoted as C) | B (a compound having 3 or more and less than 10 is denoted as B) |
| CC[C@H](C)[C@@H]1NC(=O)[C@H](CC)N(C)C(=O)C[C@@H](C(=O)N(C)C)N(C)C(=O)[C@H](C2CCCC2)N(C)C(=O)C2(CCC2)NC(=O)[C@@H]2CCN2C(=O)[C@H](CCc2cc(F)c(C(F)(F)F)c(F)c2)NC(=O)CN(C)C(=O)[C@H](Cc2ccc(C(F)(F)F)cc2)N2CCCCC[C@@H](C2=O)N(C)C(=O)CN(C)C1=O [PP0654] | B (a compound having 3 or more and less than 10 is denoted as B) | B (a compound having 3 or more and less than 10 is denoted as B) |
| CCO[C@@H]1C[C@H]2C(=O)NC3(CCC3)C(=O)N(C)[C@@H](C3CCCC3)C(=O)N(C)[C@H](C(=O)N(C)C)CC(=O)N(C)[C@@H](CC3CCCCC3)C(=O)N[C@@H]([C@@H](C)CC)C(=O)N(C)CC(=O)N(C)[C@H]3CCCCCN(C3=O)[C@@H](Cc3ccc(C(F)(F)F)cc3)C(=O)N(C)CC(=O)N[C@@H](CCc3cc(F)c(C(F)(F)F)c(F)c3)C(=O)N2C1 [PP0671] | B (a compound having 3 or more and less than 10 is denoted as B) | B (a compound having 3 or more and less than 10 is denoted as B) |
| CCO[C@@H]1C[C@H]2C(=O)NC3(CCC3)C(=O)N(C)[C@@H](C3CCCC3)C(=O)N(C)[C@H](C(=O)N(C)C)CC(=O)N(C)[C@@H](CCOC)C(=O)N[C@@H]([C@@H](C)CC)C(=O)N(C)CC(=O)N(C)[C@H]3CCCCCN(C3=O)[C@@H](Cc3ccc(C(F)(F)F)cc3)C(=O)N(C)CC(=O)N[C@@H](CCc3cc(F)c(C(F)(F)F)c(F)c3)C(=O)N2C1 [PP0675] | B (a compound having 3 or more and less than 10 is denoted as B) | B (a compound having 3 or more and less than 10 is denoted as B) |
| CCO[C@@H]1C[C@H]2C(=O)NC3(CCC3)C(=O)N(C)[C@@H](C3CCCC3)C(=O)N(C)[C@H](C(=O)N3CCOCC3)CC(=O)N(C)[C@@H](CC3CC3)C(=O)N[C@@H]([C@@H](C)CC)C(=O)N(C)CC(=O)N(C)[C@H]3CCCCCN(C3=O)[C@@H](Cc3ccc(C(F)(F)F)cc3)C(=O)N(C)CC(=O)N[C@@H](CCc3cc(F)c(C(F)(F)F)c(F)c3)C(=O)N2C1 [PP0682] | B (a compound having 3 or more and less than 10 is denoted as B) | B (a compound having 3 or more and less than 10 is denoted as B) |
